Assay [1] concerns the target T1, Full-length (FL)-PRMT5-MEP50 enzyme complex (Homo sapiens, UniProt O14744).
T1 construct: Full-length (FL)-PRMT5-MEP50 enzyme complex (recombinant proteins from baculovirus-transfected Sf21 cells: FL-PRMT5; MW=73837 kDa and FL-MEP50; MW=38614); made in house; host or cells: baculovirus-transfected Sf21 cells
In words: PRMT5-MEP50 Enzyme Methylation Assay (Version A). It counts as biochemical. As to the method:
PRMT5-MEP50 Enzyme Methylation Assay (Version A)
PRMT5-MEP50 biochemical assay is a direct measurement of the methylation activity of the enzyme complex on a short peptide substrate derived from the N-terminus of H4 histone. Methylation experiment was performed with recombinant PRMT5-MEP50 protein complex. The assessment of inhibitory effect of small molecules was measured by the effectiveness of the compounds to inhibit this reaction (EC50).
In this assay, the potency (EC50) of each compound was determined from a twenty-point (1:2 serial dilution; top compound concentration of 100000 nM) titration curve using the following outlined procedure. To each well of a white ProxiPlus 384 well-plate, 100 nL of compound (1% DMSO in final assay volume of 10 μL) was dispensed, followed by the addition of 8 μL of 1× assay buffer (50 mM Bicine pH 8.0, 1 mM DTT, 0.004% Tween20, 0.01% BSA) containing 1.25 nM of Full-length (FL)-PRMT5-MEP50 enzyme complex (recombinant proteins from baculovirus-transfected Sf21 cells: FL-PRMT5; MW=[…] and FL-MEP50; MW=38614) and 1 μL of 150 μM S-(5′-Adenosyl)-L-Methionine Chloride (SAM). A plate were sealed and placed in a 37° C. humidified chamber for a 60 minutes pre-incubation with compound. Subsequently, each reaction was initiated by the addition of 1 μL 1× assay buffer containing 750 nM biotinylated H4R3(Me1) peptide. The final reaction in each well of 10 μL consists of 1.0 nM PRMT5-MEP50, 75 nM biotinylated-peptide, and 15 μM SAM. Methylation reactions were allowed to proceed for 150 minutes in a sealed plate at 37° C. Reactions were immediately quenched by the addition of 1 μL of 5% formic acid. A plate was then frozen and shipped to SAMDI™ Tech Inc. to determine the percent conversion from H4R3(Me1) to H4R3(Me2). Dose-response curves were generated by plotting percent effect (% product conversion; Y-axis) vs. Log 10 compound concentrations (X-axis). EC50 values were determined by non-linear regression according to models for either sigmoidal (4 parameters) or biphasic (7 parameters) dose-response curves.

In assay [2] the test system is symmetric dimethylation of arginine (SDMA) of PRMT5 substrates in MCF-7 cells. In words: PRMT5 Cell Target Engagement (TE) Assay. It counts as cell-based. The following applies: 3 days treatment, SDMA high content imaging. The text has this:
PRMT5 Cell Target Engagement (TE) Assay
The PRMT5 TE assay is a biomarker assay for identifying compounds that inhibit symmetric dimethylation of arginine (SDMA) of PRMT5 substrates. The following substrates have been reported for PRMT5: histone H2A and H4 R3, Histone H3 R2, Histone H3 R8, spliceosome Sm proteins, ribosomal protein RPS10, p53, FEN1, nucleoplasmin, nucleolin, EGFR and EBNA. The assay focuses on detecting symmetrically dimethylated nuclear proteins using high content imaging technology. Detection of the expression of symmetrically dimethylated nuclear proteins is through a mixture of primary rabbit monoclonal antibodies to SDMA (CST 13222), which in turn recognized by an Alexafluor 488 dye-conjugated anti-rabbit IgG secondary antibody. The IN Cell Analyzer 2200 or Opera-Phenix measures nuclear Alexafluor 488 fluorescent dye intensity that is directly related to the level of expression of symmetrically dimethylated nuclear proteins at the single cell level. Nuclear AF488 dye intensities are compared to the mean value for DMSO treated cells (MIN) to report percent of inhibition for each compound-treated well.
In this assay, the cell potency (EC50) of each compound was determined from a ten point (1:3 serial dilution; top compound concentration of 10000 nM) titration curve using the following outlined procedure. Each well of a BD falcon collagen coated black/clear bottom 384-well plate was seeded with 4000 MCF-7 cells in 30 μl media and allowed to attach for 5 h. Media is ATCC-formulated Eagle's Minimum Essential Medium, Catalog No. 30-2003. To make the complete growth medium, the following components were added to the base medium: 0.01 mg/mL human recombinant insulin; fetal bovine serum to a final concentration of 10%. Additional 30 μl of media containing 2× compounds were added to each well. Cells were treated for 3 days in 37° C. CO2 incubator. On day 3, cells were fixed with Cytofix, permeabilized with 0.4% Triton-X-100/Cytofix, and washed with D-PBS without Ca/Mg. Cells were blocked with Licor Odessey blocking reagent for 1 h at room temperature, followed by incubation with anti-SDMA (1:1000) antibody at 4° C. overnight. 1° antibody was removed, followed by three washings with DPBS without Ca/Mg and 0.05% Tween20. Hoechst (5 μg/mL), Cell Mask deep stain (1:2000) and Alexa488-conjugated goat anti-rabbit IgG (2 μg/mL) was added for 1 h at room temperature. A final washing step (three washes) was performed before sealing plate for imaging on In Cell Analyzer 2200 or Opera-Phenix. Images from analyzer were uploaded to Columbus (at WP or BOS) for image analysis. IC50 values were determined by 4 parameters robust fit of percent fluorescence units vs. (Log10) compound concentrations.

Setting [3] is: second value of 7 parameter biphasic fit, read-out: Enzyme Methylation Assay Version A (EC50 2).
Where [4] appears, read: single EC50 = 4 parameter single site sigmoidal fit, EC50 1 = first value of 7 parameter biphasic fit, read-out: Enzyme Methylation Assay Version A (EC50 or EC50 1).

pEC50: −log10 of the molar value. Read-outs that look alike come from different tables or passages of the source.

T1 sequence (O14744 whole entry): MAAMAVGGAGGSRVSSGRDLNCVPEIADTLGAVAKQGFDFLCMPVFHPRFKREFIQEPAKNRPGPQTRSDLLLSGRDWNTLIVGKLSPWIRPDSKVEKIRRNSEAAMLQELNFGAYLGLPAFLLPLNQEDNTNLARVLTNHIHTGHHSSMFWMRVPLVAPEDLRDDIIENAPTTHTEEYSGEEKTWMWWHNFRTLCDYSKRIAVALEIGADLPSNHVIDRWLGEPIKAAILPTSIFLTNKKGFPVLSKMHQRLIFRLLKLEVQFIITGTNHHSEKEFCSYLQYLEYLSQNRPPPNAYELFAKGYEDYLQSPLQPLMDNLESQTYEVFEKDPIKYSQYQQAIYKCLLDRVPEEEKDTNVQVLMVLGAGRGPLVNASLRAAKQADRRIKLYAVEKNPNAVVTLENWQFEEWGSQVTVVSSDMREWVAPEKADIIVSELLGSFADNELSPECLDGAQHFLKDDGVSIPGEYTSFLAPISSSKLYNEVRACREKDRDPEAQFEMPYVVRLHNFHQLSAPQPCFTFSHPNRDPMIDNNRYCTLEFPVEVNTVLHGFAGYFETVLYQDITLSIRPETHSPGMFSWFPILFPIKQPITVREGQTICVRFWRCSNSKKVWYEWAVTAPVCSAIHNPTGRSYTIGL
T1 sequence (Q9BQA1 whole entry partner): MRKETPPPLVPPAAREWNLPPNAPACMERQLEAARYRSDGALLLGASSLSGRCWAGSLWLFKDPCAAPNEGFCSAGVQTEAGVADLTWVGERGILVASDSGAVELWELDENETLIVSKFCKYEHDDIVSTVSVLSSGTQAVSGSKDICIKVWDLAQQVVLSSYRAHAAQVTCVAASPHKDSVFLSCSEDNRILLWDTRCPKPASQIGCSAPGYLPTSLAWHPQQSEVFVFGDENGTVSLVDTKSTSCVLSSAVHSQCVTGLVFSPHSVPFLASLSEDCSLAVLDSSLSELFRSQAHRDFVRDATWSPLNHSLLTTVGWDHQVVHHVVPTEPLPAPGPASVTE

What is called pEC50 is −log10 of the EC50, conventionally taken in molar units. As to `COC(C)c1ccc2nc(C(=O)N3CC[C@]4(Cc5ccccc5CN4)[C@H](O)C3)cn2c1` (single isomer, unassigned) [Example 22, ((3R,3’R)-3′-hydroxy-1,4-dihydro-2H-spiro[isoquinoline-3,4′-piperidin]-1′-yl)(6-((S or R)-1-methoxyethyl)imidazo[1,2-a]pyridin-2-yl)methanone], the results for the pEC50 in assay [1] (setting [3]), in assay [1] (setting [4]) and in assay [2] were 6.36, 9.17 and 7.77, respectively.

Regarding `COC(C)c1ccc2nc(C(=O)N3CC[C@]4(Cc5ccccc5CN4)[C@H](O)C3)cn2c1` (single isomer, unassigned) [Example 23, ((3R,3’R)-3′-hydroxy-1,4-dihydro-2H-spiro[isoquinoline-3,4′-piperidin]-1-yl)(6-((R or S)-1-methoxyethyl)imidazo[1,2-a]pyridin-2-yl)methanone], the pEC50 is 6.07 in assay [1] (setting [3]), 8.74 in assay [1] (setting [4]) and 7.33 in assay [2].

Regarding `O=C(c1cn2cc(Br)cc(C(O)C(F)(F)F)c2n1)N1CC[C@]2(Cc3ccccc3CN2)[C@H](O)C1` (single isomer, unassigned) [Example 30, (6-bromo-8-((R or S)-2,2,2-trifluoro-1-hydroxyethyl)imidazo[1,2-a]pyridin-2-yl)((3R,3’R)-3′-hydroxy-1,4-dihydro-2H-spiro[isoquinoline-3,4′-piperidin]-1′-yl)methanone], the pEC50 is 7.00 in assay [1] (setting [3]); 9.23 in assay [1] (setting [4]); 8.44 in assay [2] (Homo sapiens, MCF7, 72 h).

Turning to `O=C(c1cn2cc(Br)cc(C(O)C(F)(F)F)c2n1)N1CC[C@]2(Cc3ccccc3CN2)[C@H](O)C1` (single isomer, unassigned) [Example 31, (6-bromo-8-((S or R)-2,2,2-trifluoro-1-hydroxyethyl)imidazo[1,2-a]pyridin-2-yl)((3R,3’R)-3′-hydroxy-1,4-dihydro-2H-spiro[isoquinoline-3,4′-piperidin]-1′-yl)methanone], the pEC50 in assay [1] (setting [3]) was 7.14; in assay [1] (setting [4]), 9.67; in assay [2], 8.35.

On to `CC(O)c1cc(Br)cn2cc(C(=O)N3CC[C@]4(Cc5ccccc5CN4)[C@H](O)C3)nc12` (single isomer, unassigned) [Example 32, (6-bromo-8-((R or S)-1-hydroxyethyl)imidazo[1,2-a]pyridin-2-yl)((3R,3’R)-3′-hydroxy-1,4-dihydro-2H-spiro[isoquinoline-3,4′-piperidin]-1′-yl)methanone], for which the pEC50 in assay [1] (setting [3]) was 6.55; in assay [1] (setting [4]), 9.07; in assay [2] (Homo sapiens, MCF7, 72 h), 8.29.

Regarding `CC(O)c1cc(Br)cn2cc(C(=O)N3CC[C@]4(Cc5ccccc5CN4)[C@H](O)C3)nc12` (single isomer, unassigned) [Example 33, (6-bromo-8-((S or R)-1-hydroxyethyl)imidazo[1,2-a]pyridin-2-yl)((3R,3’R)-3′-hydroxy-1,4-dihydro-2H-spiro[isoquinoline-3,4′-piperidin]-1′-yl)methanone], the pEC50 in assay [1] (setting [3]) is 6.67; in assay [1] (setting [4]), 9.25; in assay [2], 8.43.

`COC(C)c1cc(Br)c2nc(C(=O)N3CC[C@]4(Cc5ccccc5CN4)[C@H](O)C3)cn2c1` (single isomer, unassigned) [Example 60]: the pEC50 in assay [1] (setting [3]) was 6.57; in assay [1] (setting [4]), 9.34; in assay [2] it was 8.13.

Turning to `COC(C)c1cc(Br)c2nc(C(=O)N3CC[C@]4(Cc5ccccc5CN4)[C@H](O)C3)cn2c1` (single isomer, unassigned) [Example 61], the pEC50 in assay [1] (setting [3]) was 6.37; in assay [1] (setting [4]), 9.17; in assay [2], 7.77.

`CC1CC1c1cnc2nc(C(=O)N3CC[C@]4(Cc5ccccc5CN4)[C@H](O)C3)cn2c1` (single isomer, unassigned) [Example 74]: the pEC50 in assay [1] (setting [4]) was 7.86; in assay [2], 8.08.

For the compound `O=C(c1cn2cc(C3CC3(F)F)cnc2n1)N1CC[C@]2(Cc3ccccc3CN2)[C@H](O)C1` (single isomer, unassigned) [Example 75], the pEC50 in assay [1] (setting [3]) was 6.95; in assay [1] (setting [4]) it was 8.78; in assay [2] (Homo sapiens, MCF7, 72 h) it was 7.56.

With `CC1CC1c1cnc2nc(C(=O)N3CC[C@]4(Cc5ccccc5CN4)[C@H](O)C3)cn2c1` (single isomer, unassigned) [Example 76], the figures for the pEC50 in assay [1] (setting [3]), in assay [1] (setting [4]) and in assay [2] were 7.14, 9.01 and 8.40, respectively.

Turning to `O=C(c1cn2cc(C3CC3(F)F)cnc2n1)N1CC[C@]2(Cc3ccccc3CN2)[C@H](O)C1` (single isomer, unassigned) [Example 77], the pEC50 in assay [1] (setting [3]) is 6.96; in assay [1] (setting [4]) it was 8.84; in assay [2], 7.62.

For the compound `COC(C)c1cc(C(F)F)cn2cc(C(=O)N3CC[C@]4(Cc5ccccc5CN4)[C@H](O)C3)nc12` (single isomer, unassigned) [Example 80], the pEC50 in assay [1] (setting [4]) was 8.90; in assay [2], 8.08.

`COC(C)c1cc(C(F)F)cn2cc(C(=O)N3CC[C@]4(Cc5ccccc5CN4)[C@H](O)C3)nc12` (single isomer, unassigned) [Example 81]: the pEC50 was 8.42 in assay [1] (setting [4]) and 7.60 in assay [2].

`N#CC1(c2cnc3nc(C(=O)N4CC[C@]5(Cc6ccccc6CN5)[C@H](O)C4)cn3c2)CC12CC2` (single isomer, unassigned) [Example 82]: the pEC50 in assay [1] (setting [4]) is 9.13; in assay [2] it was 8.11.

Consider `N#CC1(c2cnc3nc(C(=O)N4CC[C@]5(Cc6ccccc6CN5)[C@H](O)C4)cn3c2)CC12CC2` (single isomer, unassigned) [Example 83], for which the pEC50 is 5.50 in assay [1] (setting [3]), 8.48 in assay [1] (setting [4]) and 7.04 in assay [2].

In the case of `CN1CCC(Oc2nc(Br)cn3cc(C(=O)N4CC[C@]5(Cc6ccccc6CN5)[C@H](O)C4)nc23)C1=O` (single isomer, unassigned) [Example 94, (R or S)-3-((6-bromo-2-((3R,3′R)-3′-hydroxy-1,4-dihydro-2H-spiro[isoquinoline-3,4′-piperidine]-1′-carbonyl)imidazo[1,2-a]pyrazin-8-yl)oxy)-1-methylpyrrolidin-2-one], the pEC50 in assay [1] (setting [3]) is 6.50; in assay [1] (setting [4]) it was 9.08; in assay [2] (Homo sapiens, MCF7, 72 h) it was 7.71.

Values taken from patent US12441730B2, “PRMT5 inhibitors” (Merck Sharp & Dohme LLC, priority 2019, dated 2025).
